# Source: US20080051417A1, “Uses of selective cyclooxygenase-1 inhibitors” (priority 2006, published 2008)
# Read-outs that look alike come from different tables or passages of the source.
# Assays:
# [1] = system: 15-epi-LPXA4; assay: Myocardial 15-epi-LPXA4 levels (ELISA) in treated rats; format: in vivo, Sprague-Dawley rats; conditions: for effect on pioglitazone+atorvastatin induction of myocardial 15-epi-LPXA4: pioglitazone+atorvastatin pretreated rats; for effect on myocardial 15-epi-LPXA4 levels: 8 h before harvest
# Experimental: (§1) Rats received the following treatment (4 rats in each group): 1) i.v. saline and oral water; 2) i.v. saline and oral aspirin 10 mg/kg; 3) i.v. saline and oral aspirin 50 mg/kg; 4) i.v. LPS and oral water; 5) i.v. LPS and oral aspirin 10 mg/kg; 6) i.v. LPS and oral aspirin 50 mg/kg; 7) i.v. LPS and oral aspirin 200 mg/kg; 8) oral pioglitazone (10 mg/kg/d) and atorvastatin (10 mg/kg/d); 9) oral pioglitazone+atorvastatin and aspirin 10 mg/kg; 10) oral pioglitazone+atorvastatin and aspirin 50 mg/kg; 11) oral pioglitazone+atorvastatin and aspirin 50 mg/kg and i.v. 1400 W, a specific iNOS inhibitor; or 12) oral pioglitazone+atorvastatin, oral water, and i.v. 1400 W, a specific iNOS inhibitor. LPS (10 mg/kg) was dissolved in 1 ml of saline and was administered intravenously 8 hours before harvesting the hearts. Aspirin was dissolved in water and administered by oral gavage 8 hours before harvesting the hearts. Atorvastatin and pioglitazone were administered by oral gavage once daily for 3 days; last dose was administered 16 hours before harvesting the hearts. 1400 W (1 mg/kg) was administered i.v. 15 minutes before harvesting the hearts. All hearts were analyzed for myocardial 15-epi-LPXA4, lipoxin A4, 6-keto-PGF1α (the stable metabolite of PGI2) and PGE2 levels.
# (§2) The hearts were rapidly explanted, rinsed in cold PBS (pH 7.4), containing 0.16 mg/ml heparin to remove red blood cells and clots, frozen in liquid nitrogen and stored at −70° C. For 15-epi-LPXA4 and lipoxin A4 determination, myocardial samples from the anterior left ventricular wall were homogenized in ethanol (5 ml/g) and centrifuged at 10,000 g X15 min at 4° C. The supernatant was diluted with water and acidified to pH 3.5 with 1N HCl. The sample was loaded into C-18 Sep-Pak light column (Waters Corporation, Milford, Mass.) and washed with 1 ml of water followed by 1 ml of petroleum ether. The sample was eluted with 2 ml of methyl formate. The methyl formate was evaporated with N2 and the residue was dissolved in extraction buffer. The manufacturer instruction of the ELISA Kits was followed. For myocardial 6-keto-PGF1α and PGE2 levels myocardial samples were homogenized in RIPA lysis buffer with 10% proteinase inhibitor (Sigma) and centrifuged. The supernatants were collected and stored on ice. Measurement of 6-keto-PGF1α (the stable hydrolysis product of PGI2) and PGE2 were performed as instructed by the manufacturer.
# [2] = system: lipoxin A4; assay: Myocardial lipoxin A4 levels (ELISA) in treated rats; format: in vivo, Sprague-Dawley rats; conditions: for effect on pioglitazone+atorvastatin effect on myocardial lipoxin A4: pioglitazone+atorvastatin pretreated rats
# Experimental: as §1, §2
# [3] = system: 6-keto-PGF1α (the stable metabolite of PGI2); assay: Myocardial 6-keto-PGF1α levels (ELISA) in treated rats; format: in vivo, Sprague-Dawley rats; conditions: for effect on pioglitazone+atorvastatin increase of myocardial 6-keto-PGF1α: pioglitazone+atorvastatin pretreated rats
# Experimental: as §1, §2
# [4] = system: PGE2; assay: Myocardial PGE2 levels (ELISA) in treated rats; format: in vivo, Sprague-Dawley rats; conditions: for effect on pioglitazone+atorvastatin increase of myocardial PGE2: pioglitazone+atorvastatin pretreated rats; for myocardial PGE2 levels: mean ±SEM
# Experimental: as §1, §2
# [5] = system: COX2; conditions: intravenous 1400 W, same dose as herein; 3-day pretreatment with atorvastatin 10 mg/kg/d; cited from earlier work
# [6] = Infarct size after 30 minute coronary artery occlusion; format: in vivo; conditions: aspirin 20 mg/kg i.v. at end of 30 minute coronary artery occlusion; 3-day atorvastatin pretreatment
# [7] = system: 15-epi-LXA4; conditions: normal human volunteers, cited from earlier work
# [8] = system: 15-epi-LPXA4; conditions: cited from earlier work; for effect on pioglitazone+atorvastatin effect on myocardial 15-epi-LPXA4 levels: rats treated with pioglitazone+atorvastatin
# [9] = system: COX2; assay: Biotin switch assay and COX2 immunoblot of myocardial samples; format: in vivo, rats; conditions: compared with the pioglitazone+atorvastatin group
# Experimental: S-nitrosylation of COX2 was determined by the biotin switch method as previously described (Atar et al., 2006). Briefly, myocardial samples from the left ventricular wall of rats treated with lipopolysaccharide (group 4) and pioglitazone+atorvastain (group 8) were homogenized in HEN buffer (25 mM HEPES (pH 7.7)-0.1 mM EDTA-0.01 mM necuproine). The supernatant containing membrane fragments and the cytosolic protein were recovered. The samples were incubated for 30 mins at 4° C. with blocking solution containing HEN buffer, 0.1% SDS and 20 mM N-ethylmaleimide (NEM) to block free thiols.
# Lysates were centrifuged at 16,000×g for 10 min at 4° C. Cold acetone was added to precipitate the proteins. The pellets were resuspended in HEN buffer with 1% SDS, with 20 mM sodium ascorbate added to decompose the SNO bonds. The resulting free thiols in the sample were reacted with 0.05 mM biotinylating agent, biocytin (MPB) for 30 mins at room temperature. The excess MPB was removed by additional protein precipitation in cold acetone. COX2 was immunoprecipitated with anti-COX2 polyclonal antibody. […] The biotinylated COX2 protein was detected with horseradish peroxidase-linked streptavidin. […] The signal densities of the biotinylated COX2 and total COX2 were quantified by an image-scanning densitometer and the ratio of the densities was calculated for each animal.
compound,measurement,setting,value
CC(=N)NCc1cccc(CN)c1 [1400 W],effect on pioglitazone+atorvastatin induction of myocardial 15-epi-LPXA4,[1]; 1400 W 1 mg/kg i.v. alone,partially blocked
same,effect on pioglitazone+atorvastatin effect on myocardial lipoxin A4,[2]; 1400 W alone,not attenuated
same,effect on pioglitazone+atorvastatin increase of myocardial 6-keto-PGF1α,[3]; 1400 W,attenuated
same,effect on pioglitazone+atorvastatin increase of myocardial PGE2,[4]; 1400 W,completely blocked
same,effect on augmentation of COX2 activity by atorvastatin,[5],blocked
CC(=O)Oc1ccccc1C(=O)O [Aspirin],effect on myocardial 15-epi-LPXA4 levels,"[1]; aspirin alone, oral 10 mg/kg",no effect
same,effect on myocardial 15-epi-LPXA4 levels,"[1]; aspirin alone, oral 50 mg/kg",no effect
same,effect on LPS induction of myocardial 15-epi-LPXA4,"[1]; i.v. LPS + oral aspirin 10 mg/kg, p=0.08 versus LPS alone",did not significantly alter
same,effect on LPS induction of myocardial 15-epi-LPXA4,"[1]; i.v. LPS + oral aspirin 50 mg/kg, p<0.001 versus LPS alone",augmented
same,effect on LPS induction of myocardial 15-epi-LPXA4,"[1]; i.v. LPS + oral aspirin 200 mg/kg, p<0.001 versus LPS alone",augmented
same,effect on pioglitazone+atorvastatin induction of myocardial 15-epi-LPXA4,[1]; aspirin 10 mg/kg,attenuated
same,effect on pioglitazone+atorvastatin induction of myocardial 15-epi-LPXA4,[1]; aspirin 50 mg/kg,completely blocked
same,effect on LPS effect on myocardial lipoxin A4,[2]; LPS + aspirin 10 mg/kg,did not alter
same,effect on LPS effect on myocardial lipoxin A4,[2]; LPS + aspirin 50 mg/kg,did not alter
same,effect on LPS effect on myocardial lipoxin A4,"[2]; LPS + aspirin 200 mg/kg, p<0.001 versus each of the other groups",augmented
same,effect on myocardial lipoxin A4,"[2]; aspirin alone, 10 mg/kg",did not affect
same,effect on myocardial lipoxin A4,"[2]; aspirin alone, 50 mg/kg",did not affect
same,effect on pioglitazone+atorvastatin effect on myocardial lipoxin A4,[2]; aspirin alone,not attenuated
same,myocardial 6-keto-PGF1α levels,"[3]; LPS + aspirin 10 mg/kg, p<0.001 versus LPS alone, mean ±SEM",76.70 ± 0.25 pg/mg
same,myocardial 6-keto-PGF1α levels,"[3]; LPS + aspirin 50 mg/kg, p<0.001 versus LPS alone, mean ±SEM",27.66 ± 0.23 pg/mg
same,myocardial 6-keto-PGF1α levels,"[3]; LPS + aspirin 200 mg/kg, p<0.001 versus LPS alone, mean ±SEM",25.39 ± 0.22 pg/mg
same,myocardial 6-keto-PGF1α levels,"[3]; aspirin alone 10 mg/kg, p=0.48 versus control",22.35 pg/mg
same,myocardial 6-keto-PGF1α levels,"[3]; aspirin alone 50 mg/kg, p=0.001 versus control, mean ±SEM",20.97 ± 0.51 pg/mg
same,effect on pioglitazone+atorvastatin increase of myocardial 6-keto-PGF1α,[3]; aspirin 10 mg/kg,attenuated
same,effect on pioglitazone+atorvastatin increase of myocardial 6-keto-PGF1α,[3]; aspirin 50 mg/kg,attenuated
same,myocardial PGE2 levels,"[4]; LPS + aspirin 10 mg/kg, p<0.001 versus LPS alone",48.70 ± 3.02 pg/mg
same,myocardial PGE2 levels,"[4]; LPS + aspirin 50 mg/kg, p<0.001 versus LPS alone",41.68 ± 0.24 pg/mg
same,myocardial PGE2 levels,"[4]; LPS + aspirin 200 mg/kg, p<0.001 versus LPS alone",33.72 ± 0.46 pg/mg
same,myocardial PGE2 levels,"[4]; aspirin alone 10 mg/kg, not significant versus control",34.48 ± 0.21 pg/mg
same,myocardial PGE2 levels,"[4]; aspirin alone 50 mg/kg, not significant versus control",33.68 ± 0.24 pg/mg
same,effect on pioglitazone+atorvastatin increase of myocardial PGE2,[4]; aspirin 10 mg/kg,attenuated
same,effect on pioglitazone+atorvastatin increase of myocardial PGE2,[4]; aspirin 50 mg/kg,completely blocked
same,effect on infarct size limiting effect of atorvastatin,[6],completely abrogated
same,effect on 15-epi-LXA4,[7]; 650 mg/d,did not increase
same,blood levels of 15ELX at 81 mg/d compared with 325 mg/d,[7],greater
CC(C)c1c(C(=O)Nc2ccccc2)c(-c2ccccc2)c(-c2ccc(F)cc2)n1CC[C@@H](O)C[C@@H](O)CC(=O)O [atorvastatin],effect on myocardial 15-epi-LPXA4 levels,"[8]; 3 days oral 5 and 10 mg/kg/d, but not 2 mg/kg/d, each drug alone",increased
Cc1onc(-c2ccccc2)c1-c1ccc(S(N)(=O)=O)cc1 [valdecoxib],effect on pioglitazone+atorvastatin effect on myocardial 15-epi-LPXA4 levels,[8],blocked
CC(c1cc2ccccc2s1)N(O)C(N)=O (stereo not shown) [zileuton],effect on pioglitazone+atorvastatin effect on myocardial 15-epi-LPXA4 levels,[8],blocked
lipopolysaccharide [LPS],effect on myocardial 15-epi-LPXA4 levels,[1]; LPS 10 mg/kg i.v. alone,increased
same,effect on myocardial lipoxin A4 levels,[2]; LPS alone,small increase
same,myocardial 6-keto-PGF1α levels,"[3]; LPS alone, p<0.001 versus control, mean ±SEM",80.56 ± 0.21 pg/mg
same,myocardial PGE2 levels,"[4]; LPS alone, p<0.001 versus control",70.31±0.26
same,total COX2 immunoblot signal intensity,[9],stronger
